Measured values reported in ChEMBL document CHEMBL2440011, “Screening for inhibitors of the hepatitis C virus internal ribosome entry site RNA” (Bioorg Med Chem, 2013).
Calls of active or inactive are those of the source. No cut-off for these calls is given here.

Columns and labels:
[1] = Binding affinity to 5'-terminal cyanine dye-labeled IRES subdomain 2a RNA (unknown origin) by FRET assay in presence of Mg2+
[2] = Binding affinity to 5'-terminal cyanine dye-labeled IRES subdomain 2a RNA (unknown origin) at 200 uM by FRET assay
[3] = Binding affinity to 5'-terminal cyanine dye-labeled IRES subdomain 2a RNA (unknown origin) at 200 uM by FRET assay in presence of tRNA
[4] = system: Internal ribosome entry site (IRES); experiment: Binding affinity to HCV IRES RNA assessed as inhibition of RNA translation at […] by luciferase reporter gene assay; conditions: Hepacivirus hominis
[5] = Binding affinity to cap RNA (unknown origin) assessed as inhibition of cap-dependent firefly luciferase reporter translation

CN(C)CCCn1c(N)nc2ccc3c(c21)CC(CN(C)C)CO3 (stereo not drawn)
Activity [1]: Dose-dependent effect

CN(C)CC1COc2ccc3nc4n(c3c2C1)CC(CN(C)C)CN4 (stereo not drawn)
Activity [1]: Active

CN(C)CCCNc1nc2cc(N)ccc2o1
Activity [2]: Active

CN(C)CCCNc1nc2ccc(N)cc2o1
Activity [3]: Active
inhibition [4]: 30%
inhibition [5]: inactive
Activity [2]: Active
Activity [1]: Dose-dependent effect
